Values of other authors as cited in article PMC3229099 (Acta biochimica Polonica, 2011).

Experiments:
[1] = test system: δ receptor versus μ receptor; details: ref Pawlak et al, 1997
opioid δ receptors = details: in vivo studies with the use of selective opioid receptor antagonists; ref Kotlińska et al, 2009

## amide of cyclo[N^ε, N^δ -carbonyl-D-Lys^2, Dap^5 ]enkephalin
[1]
  GPI/MVD ratio: 0.33
Opioid δ receptors
  receptor type mediating antinociception in vivo: induced antinociception predominantly through opioid δ receptors
